Results taken from PMC7335359, “Design and Synthesis of Dihydroxamic Acids as HDAC6/8/10 Inhibitors” (Chemmedchem, 2020).

Legend:
HDAC10 = molecular target: T1, HDAC10 (Homo sapiens, UniProt Q969S8); assay: ligand displacement TR-FRET assay, HDAC10; format: binding; set-up: host or cells: Sf21 insect cells (baculovirus); conditions: for IC50: ligand-displacement FRET assay, read-out: HDAC10 pIC50 (converted)
T1 sequence (Q969S8 1-669): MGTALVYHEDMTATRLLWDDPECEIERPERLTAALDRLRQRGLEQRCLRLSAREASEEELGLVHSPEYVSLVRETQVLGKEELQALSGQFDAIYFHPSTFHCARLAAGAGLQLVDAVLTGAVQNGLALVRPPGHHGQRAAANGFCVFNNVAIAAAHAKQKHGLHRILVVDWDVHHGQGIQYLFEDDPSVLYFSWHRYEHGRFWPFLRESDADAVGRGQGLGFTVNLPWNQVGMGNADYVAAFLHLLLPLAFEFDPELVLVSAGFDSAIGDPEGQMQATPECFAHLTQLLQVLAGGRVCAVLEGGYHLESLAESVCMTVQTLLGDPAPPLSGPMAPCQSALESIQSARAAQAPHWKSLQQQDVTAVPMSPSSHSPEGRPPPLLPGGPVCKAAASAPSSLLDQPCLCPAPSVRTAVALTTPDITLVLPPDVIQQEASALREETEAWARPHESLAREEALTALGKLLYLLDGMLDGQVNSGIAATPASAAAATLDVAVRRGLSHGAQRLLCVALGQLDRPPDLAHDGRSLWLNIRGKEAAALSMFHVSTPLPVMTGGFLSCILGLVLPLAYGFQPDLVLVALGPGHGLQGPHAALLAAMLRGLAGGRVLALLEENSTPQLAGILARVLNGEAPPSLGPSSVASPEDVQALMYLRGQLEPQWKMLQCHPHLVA
Experimental: Expression and purification of TwinStrepII‐GST‐HDAC10: A synthetic gene encoding TwinStrepII‐GST‐HDAC10 (human) was ordered from GeneArt (Thermo Fischer Scientific) and subcloned into the pFastBac1 vector. The resulting construct was used for transposition in E. coli DH10EMBacY cells. The isolated bacmid DNA was then used to generate the recombinant baculovirus. For protein expression, 10 mL of baculovirus was added to 1 L of Sf21 cells at a density of 1×10^6 cells/mL. The infected Sf21 cells were grown for 72 h in Sf‐900 III SFM medium (Thermo Fischer Scientific) at 27 °C. Cells were harvested by centrifugation and re‐suspended in running buffer (100 mM Tris pH 8.0, 150 mM NaCl, 1 mM EDTA and 1 mM DTT) supplemented with 10 mM MgCl2, benzonase and cOmplete protease inhibitors (Merck). […] The clarified lysate was then loaded onto a 5 mL Strep‐Tactin Superflow high capacity column (IBA) pre‐equilibrated in running buffer. After sample loading and washing, the TwinStrepII‐GST‐HDAC10 protein was eluted in running buffer supplemented with 5 mM desthiobiotin (IBA). The elution fractions containing TwinStrepII‐GST‐HDAC10 were pooled and concentrated before being injected onto a HiLoad 16/600 Superdex 200 pg size exclusion chromatography column (GE Healthcare) pre‐equilibrated with 25 mM HEPES/NaCl pH 7.5, 150 mM NaCl, 0.5 mM EDTA, 1 mM DTT and 10 % glycerol. Samples were eluted from the size exclusion chromatography column in the same buffer, flash‐frozen in liquid N2 and stored at −80 °C.
The TR‐FRET measurements of the monohydroxamic acids in this manuscript were measured in the original assay format, which is described directly below this paragraph. The TR‐FRET measurements of the dihydroxamic acids in this manuscript were measured in the modified format, which is described two paragraphs below this one.
The concentrations of reagents in 10 μL final assay volume were 3 nM GST‐HDAC10, 30 nM “Tubastatin‐Alexa647‐Tracer” and 0.5 nM Eu‐anti‐GST. GST‐HDAC10 and LanthaScreen™ Eu‐anti‐GST Antibody were purchased from Life Technologies, and the Tubastatin‐Alexa647‐Tracer was synthesized in‐house as previously described.19 An 11‐fold 1 : 3‐serial dilution of compounds starting at 2 mM was prepared in 384 well pp‐plates (Greiner) from 10 mM stocks in DMSO and 1 μL was transferred to assay plates. Nine μL of the reagent‐mix was added and the plate was incubated for 1 h at RT before TR‐FRET was measured in an EnVision™ plate reader equipped with a TR‐FRET Laser module. […] Percent inhibition was calculated for each well from negative control wells containing 2 % DMSO and positive control wells containing 20 μM SAHA. The resulting dose‐response curves were fitted in ActivityBase (IDBS) using a four‐parameter logistic model and pIC50‐values were calculated.
After drug dosing to the premixed assay reagents in buffer, plates were shaken (800 rpm orbital shaker, 30 s), centrifuged (300 g, 1 min) and incubated at room temperature in the dark for 60 min. TR‐FRET was measured with a CLARIOstar (BMG Labtech) plate reader, equipped with TR‐FRET filters.

HDAC1 = molecular target: T2, HDAC1 (Homo sapiens, UniProt Q13547); assay: HDAC-Glo I/II enzymatic assay, HDAC1; format: biochemical; conditions: read-out: HDAC1 pIC50 (converted)
T2 construct: purchased BPS Bioscience 50051
T2 sequence (Q13547 whole entry): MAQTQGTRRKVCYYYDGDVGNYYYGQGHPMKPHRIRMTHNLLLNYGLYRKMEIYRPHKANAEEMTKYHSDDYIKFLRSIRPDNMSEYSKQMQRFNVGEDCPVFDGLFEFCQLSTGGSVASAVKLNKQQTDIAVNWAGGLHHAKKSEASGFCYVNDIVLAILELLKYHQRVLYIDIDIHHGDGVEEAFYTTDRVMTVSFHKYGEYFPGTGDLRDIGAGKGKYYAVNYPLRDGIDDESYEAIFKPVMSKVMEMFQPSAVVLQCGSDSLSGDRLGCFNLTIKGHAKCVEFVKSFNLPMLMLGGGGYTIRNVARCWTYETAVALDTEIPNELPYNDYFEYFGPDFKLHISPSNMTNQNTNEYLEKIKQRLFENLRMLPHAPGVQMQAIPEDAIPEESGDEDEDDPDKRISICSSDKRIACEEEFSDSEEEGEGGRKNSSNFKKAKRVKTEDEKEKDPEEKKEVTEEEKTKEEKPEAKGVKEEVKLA
Experimental: (§1) Inhibitors were tested at eight serial dilutions in triplicate ranging from 50 μM–86,7 pM (HDAC6) or 100 μM–8,67 nM (HDAC1,2,3,8). Drug dosing was performed from 10 mM and 0.1 mM DMSO stock solutions with a D300e Digital Dispenser (Tecan). HDACs (7 ng/mL for HDAC1, 10 ng/mL for HDAC2, 200 ng/mL for HDAC3/Ncor2 complex, 100 ng/mL for HDAC6, 200 ng/mL for HDAC8) and inhibitors were incubated together for 30 min at room temperature. After addition of the HDAC‐Glo™ I/II reagent, plates were shaken (800 rpm orbital shaker, 30 s), centrifuged (300 g, 1 min) and incubated at room temperature for 30 min. Luminescence was detected with a CLARIOstar (BMG Labtech) plate reader.

HDAC3/NcoR2 complex = molecular target: T3, HDAC3/NcoR2 complex (Homo sapiens, UniProt O15379); assay: HDAC-Glo I/II enzymatic assay, HDAC3; format: biochemical; conditions: read-out: HDAC3 pIC50 (converted)
T3 construct: purchased BPS Bioscience 50003
T3 sequence (O15379 whole entry): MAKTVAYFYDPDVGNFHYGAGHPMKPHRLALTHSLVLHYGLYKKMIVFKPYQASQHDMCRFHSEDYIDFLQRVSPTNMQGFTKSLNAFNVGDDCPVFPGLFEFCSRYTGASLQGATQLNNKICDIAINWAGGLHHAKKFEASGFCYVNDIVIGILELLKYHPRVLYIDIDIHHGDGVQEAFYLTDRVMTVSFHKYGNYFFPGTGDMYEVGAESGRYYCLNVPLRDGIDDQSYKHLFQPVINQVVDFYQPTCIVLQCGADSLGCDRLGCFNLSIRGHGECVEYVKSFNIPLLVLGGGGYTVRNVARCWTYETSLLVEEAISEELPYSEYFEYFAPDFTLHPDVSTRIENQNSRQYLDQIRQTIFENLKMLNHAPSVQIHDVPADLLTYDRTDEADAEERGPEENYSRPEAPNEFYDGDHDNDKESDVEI
T3 sequence (Q9Y618 395-489 partner limits assumed): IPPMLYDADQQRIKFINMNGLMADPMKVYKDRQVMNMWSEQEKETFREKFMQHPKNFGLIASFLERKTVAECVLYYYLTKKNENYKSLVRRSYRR
Experimental: as §1

IC50 (HDAC10)	IC50 (HDAC1)	IC50 (HDAC3/NcoR2 complex)	increase in HDAC10 potency over the monohydroxamic acid 1f (HDAC10; FRET assay, 3f versus 1f)	SMILES
3.02 nM	813 nM	6610 nM		CN(C)CCn1cc(Cc2ccc(C(=O)NO)cc2)c2cc(C(=O)NO)ccc21 [Compound 3e]
3.39 nM	87.1 nM	1320 nM	~70 factor	O=C(NO)c1ccc(Cn2ncc3ccc(C(=O)NO)cc32)cc1 [Compound 3f]
3.98 nM	661 nM	6610 nM		CN(C)Cc1nn(Cc2ccc(C(=O)NO)cc2)c2cc(C(=O)NO)ccc12 [Compound 3g]

More lines, now with the values behind:

SMILES	IC50 (HDAC10)	IC50 (HDAC1)	IC50 (HDAC3/NcoR2 complex)	increase in HDAC10 potency over the monohydroxamic acid 1f (HDAC10; FRET assay, 3f versus 1f)
CN(C)Cc1nn(Cc2ccc(C(=O)NO)cc2)c2ccccc12 [Compound 1g]	19.5 nM			
O=C(NO)c1ccc(Cn2ccc3ccc(C(=O)NO)cc32)cc1 [Compound 3a]	2.57 nM	263 nM	5500 nM	
CN(C)Cc1cn(Cc2ccc(C(=O)NO)cc2)c2cc(C(=O)NO)ccc12 [Compound 3b]	2.82 nM	617 nM	6920 nM	
CN1CCc2c(c3ccc(C(=O)NO)cc3n2Cc2ccc(C(=O)NO)cc2)C1 [Compound 3c]	12.3 nM	501 nM	13500 nM	
O=C(NO)c1ccc(Cc2c[nH]c3ccc(C(=O)NO)cc23)cc1 [Compound 3d]	3.24 nM	525 nM	6460 nM	
